Experimental data reported in US20250057848A1, “GAL475 COMPOSITIONS AND METHODS OF USE THEREOF” (NEURIM PHARMACEUTICALS (1991) LTD., priority 2023, published 2025).

Legend:
[1] = Phase 1 single escalating oral dose study in healthy male volunteers (body weight, tolerability); type: in vivo, human
Experimental: The effects of an oral dose of GAL-475 (capsules of 450 mg) in 12 healthy male volunteers was tested in a Phase 1, randomized, placebo-controlled, double-blind, first in man single escalating dose study.
The study drug (GAL475) at 50, 150, 450 mg dosages, or placebo were administered on the morning of Day 1. Subjects fasted for 8 hours prior to the intake of study drug or placebo and for at least 4 hours following dosing.
The subject's body weight was measured on day −1 and at the follow up visit (day 7) using a validated balance. Body weight was recorded with 1 decimal.

[2] = target: 5-HT2B(h) (Homo sapiens (Human), UniProt P41595); assay: Receptor binding assay, % inhibition of radioligand binding, 5-HT2B(h); conditions: 30 micromolar GAL475; agonist radioligand; read-out: % inhibition of the binding of radioactively labelled ligand
Sequence of 5-HT2B(h) (P41595 whole entry, the tested form may be a part): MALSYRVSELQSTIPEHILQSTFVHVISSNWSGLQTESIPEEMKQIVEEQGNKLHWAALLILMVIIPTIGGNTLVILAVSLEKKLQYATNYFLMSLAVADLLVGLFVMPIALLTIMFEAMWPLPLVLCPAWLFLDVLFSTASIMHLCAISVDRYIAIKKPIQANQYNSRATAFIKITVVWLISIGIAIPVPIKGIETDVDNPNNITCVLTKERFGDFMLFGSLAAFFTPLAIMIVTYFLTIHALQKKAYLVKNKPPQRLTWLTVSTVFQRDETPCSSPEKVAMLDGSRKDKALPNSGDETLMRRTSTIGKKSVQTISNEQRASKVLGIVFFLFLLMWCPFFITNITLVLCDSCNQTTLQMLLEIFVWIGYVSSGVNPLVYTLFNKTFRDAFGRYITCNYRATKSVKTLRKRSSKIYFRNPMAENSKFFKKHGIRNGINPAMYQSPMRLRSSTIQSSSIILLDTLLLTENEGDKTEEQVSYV
Experimental: (§1) GAL475 (30 micromolar) was tested in multiple receptor binding assays. The binding was calculated as a % inhibition of the binding of a radioactively labelled ligand specific for each target.
(§2) However, the potency of GAL 475 at these receptors was lower than 1 micromolar and therefore not considered to be pharmacologically interesting. […] GAL475 was subsequently tested for PAM activity at the human NTS1 (FAST-0330I) and NTS2 (FAST-0331I) receptors, at 100-50,000 nanomolar concentrations. Agonist activity of GAL475 is expressed as a percentage of the activity of the reference agonist (Neurotensin) at its EC100 (maximal response) concentration. Antagonist activity of GAL475 is expressed as a percentage of the inhibition of reference agonist activity at its EC80 […] concentration. The assays were conducted with recombinant cell lines.

[3] = system: Na+channel (site 2); assay: Receptor binding assay, % inhibition of radioligand binding, Na+channel (site 2); conditions: 30 micromolar GAL475; antagonist radioligand
Experimental: as §1, §2

[4] = target: human NTS2 (Homo sapiens (Human), UniProt O95665); assay: Positive allosteric modulator (PAM) activity at human NTS2 (FAST-0331I), recombinant CHO-K1-mt aequorin cells; type: cell-based; conditions: 100-50,000 nM
Sequence of human NTS2 (O95665 whole entry): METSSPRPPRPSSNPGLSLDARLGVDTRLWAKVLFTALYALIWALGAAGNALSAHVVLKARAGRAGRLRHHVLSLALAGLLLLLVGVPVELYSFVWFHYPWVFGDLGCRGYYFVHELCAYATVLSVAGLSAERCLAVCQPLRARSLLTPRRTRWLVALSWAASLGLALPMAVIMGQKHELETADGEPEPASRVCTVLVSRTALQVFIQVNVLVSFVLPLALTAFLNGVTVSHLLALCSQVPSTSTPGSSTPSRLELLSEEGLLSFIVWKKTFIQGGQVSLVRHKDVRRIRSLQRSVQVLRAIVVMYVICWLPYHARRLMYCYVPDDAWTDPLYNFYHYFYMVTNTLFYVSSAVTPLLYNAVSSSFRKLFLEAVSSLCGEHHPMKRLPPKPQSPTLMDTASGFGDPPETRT
Source text: as §2
(§3) GAL475 (100-50,000 nM) was tested for positive allosteric modulator (PAM) activity at the human NTS1 (FAST-0330I) and NTS2 (FAST-0331I) receptors (Tables 2 and 3).

[5] = 28 days repeated oral dose with 14-days recovery in rats (body weight, food consumption, tolerability); type: in vivo, rat; conditions: for overall body weight gain Day −1 to Day 28 compared to that of the controls: 80 mg/kg/day oral; for group mean body weight compared to the controls: >40 mg/kg/day oral, end of dosing phase (28 days)
Experimental: One hundred and forty-two (71/sex) rats were randomly assigned to 4 groups and given vehicle [2% (w/v) CMC-Na, 1% (v/v) Tween 80 in 0.1 M phosphate buffer at pH 7.4±0.2] or Gal-475*2HCl at 20, 40 or 80 mg/kg/day once daily for 28 days by the oral gavage route.

[6] = target: 5-HT5a(h) (Homo sapiens (Human), UniProt P47898); assay: Receptor binding assay, % inhibition of radioligand binding, 5-HT5a(h); conditions: 30 micromolar GAL475; agonist radioligand; read-out: % inhibition of the binding of radioactively labelled ligand
Sequence of 5-HT5a(h) (P47898 whole entry, the tested form may be a part): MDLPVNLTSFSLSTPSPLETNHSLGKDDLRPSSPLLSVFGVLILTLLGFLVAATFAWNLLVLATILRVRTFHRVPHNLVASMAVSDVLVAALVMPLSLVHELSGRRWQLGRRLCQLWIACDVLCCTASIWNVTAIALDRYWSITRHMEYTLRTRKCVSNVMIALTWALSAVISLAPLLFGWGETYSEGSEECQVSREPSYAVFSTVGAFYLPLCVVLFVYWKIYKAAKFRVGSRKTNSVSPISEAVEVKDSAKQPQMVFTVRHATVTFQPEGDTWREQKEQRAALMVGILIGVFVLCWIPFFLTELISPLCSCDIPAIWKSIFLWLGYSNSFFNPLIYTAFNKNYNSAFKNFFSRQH
Experimental: as §1, §2

[7] = target: human NTS1 (Homo sapiens (Human), UniProt P30989); assay: Positive allosteric modulator (PAM) activity at human NTS1 (FAST-0330I), recombinant CHO-K1-mt aequorin cells; type: cell-based; conditions: 100-50,000 nM
Sequence of human NTS1 (P30989 whole entry): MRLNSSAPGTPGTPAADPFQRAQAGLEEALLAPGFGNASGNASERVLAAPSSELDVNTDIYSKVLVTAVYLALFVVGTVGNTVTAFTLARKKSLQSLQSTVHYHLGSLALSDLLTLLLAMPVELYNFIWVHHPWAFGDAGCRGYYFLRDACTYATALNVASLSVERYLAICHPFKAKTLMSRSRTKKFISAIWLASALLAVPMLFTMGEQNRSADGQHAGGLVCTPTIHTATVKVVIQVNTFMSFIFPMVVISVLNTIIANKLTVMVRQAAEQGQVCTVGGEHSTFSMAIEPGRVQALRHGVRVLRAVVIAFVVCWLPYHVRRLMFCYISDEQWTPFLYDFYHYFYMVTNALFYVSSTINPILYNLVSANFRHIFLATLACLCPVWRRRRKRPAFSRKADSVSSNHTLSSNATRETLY
Source text: as §2, §3

[8] = system: al adrenoreceptor (non-selective); assay: Receptor binding assay, % inhibition of radioligand binding, al adrenoreceptor (non-selective); conditions: 30 micromolar GAL475; antagonist radioligand
Experimental: as §1, §2

[9] = 28 day repeated oral dose with 14-day recovery in Beagle dogs (body weight gain, food consumption); type: in vivo, Beagle dog; conditions: for decrease in food consumption / decrease in body weight gain: 7.5, 15, or 30 mg/kg/day oral; for decrease in food consumption: dosing phase; for decrease in body weight gain: dosing phase up to 28 days
Experimental: Thirty-two (16/sex) dogs were randomly assigned to 4 groups and orally administered vehicle (2% (w/v) CMC-Na, 1% (v/v) Tween 80 in 0.1 M phosphate buffer at pH 7.4) or Gal-475*2HCl at 7.5, 15, or 30 mg/kg/day once daily for up to 28 days.

[10] = target: 5-HT7 (h) (Homo sapiens (Human), UniProt P34969); assay: Receptor binding assay, % inhibition of radioligand binding, 5-HT7 (h); conditions: 30 micromolar GAL475; agonist radioligand; read-out: % inhibition of the binding of radioactively labelled ligand
Sequence of 5-HT7 (h) (P34969 whole entry, the tested form may be a part): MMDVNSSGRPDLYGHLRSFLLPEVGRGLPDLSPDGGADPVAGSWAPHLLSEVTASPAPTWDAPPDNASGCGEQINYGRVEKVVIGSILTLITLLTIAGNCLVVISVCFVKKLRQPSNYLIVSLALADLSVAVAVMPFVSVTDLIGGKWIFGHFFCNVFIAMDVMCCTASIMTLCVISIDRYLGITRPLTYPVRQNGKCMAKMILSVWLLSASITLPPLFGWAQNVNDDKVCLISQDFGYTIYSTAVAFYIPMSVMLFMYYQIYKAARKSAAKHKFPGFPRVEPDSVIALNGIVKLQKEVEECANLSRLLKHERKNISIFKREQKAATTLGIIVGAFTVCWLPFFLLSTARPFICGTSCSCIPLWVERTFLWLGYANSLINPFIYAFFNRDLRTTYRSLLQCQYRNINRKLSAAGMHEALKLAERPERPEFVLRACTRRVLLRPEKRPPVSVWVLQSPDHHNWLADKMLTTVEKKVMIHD
Experimental: as §1, §2

[11] = Acute gastric emptying (charcoal slurry) in rats; type: in vivo, Sprague-Dawley rat; conditions: 3 mg/kg IV
Experimental: Naive male Sprague-Dawley rats (239-297 g) were used to evaluate the effect on gastric emptying of a single dose of 3 mg/kg GAL-475 IV.
Rats were fasted 16-18 hours prior to the start of the experiment and then were given a bolus dose of either vehicle (1% tween-80 2% CMC) or GAL475 (3 mg/kg, IV) via the lateral tail vein. 5 minutes after dosing, rats were gavaged with a charcoal slurry (5 ml/kg, 10% charcoal in 2.5% Arabic gum from acacia tree) and then returned to their cages. 20 minutes after receiving the slurry, rats were euthanized using CO2. The stomachs were excised, weighed, emptied, washed and reweighed. Gastric content was calculated as the difference between full and empty weights. Increased gastric content was interpreted as a decrease in gastric emptying food retention).

[12] = 450 mg single oral dose, day −1 to day 7
[13] = oral gavage once daily 28 days, 20, 40, or 80 mg/kg/day

With `CCCNc1nc(NC)nc2c(NCC(C)(C)O)nc(NC)nc12` [GAL475, 1-(2,6-Bis-methylamino-8-propylamino-pyrimido[5,4-d]pyrimidin-4-ylamino)-2-methyl-propan-2-ol] the “subjects with mild headaches on the day of capsule intake” value (from here on “subjects with mild headaches on the day”) ([1]; 50 mg single oral dose) was 2 of the 6, the “subjects with mild headaches on the day” value ([1]; 150 mg single oral dose) was 0 of the 6 and the “subjects with mild headaches on the day” value ([1]; 450 mg single oral dose) was 5 of the 6. For the same compound, the “change in body weight, average” value [1, 12] was -0.6 kg, the “change in body weight, range” value [1, 12] was −0.1 to −1.6 kg and the tolerability ([1]; single oral dose 50, 150, 450 mg) was “well tolerated except for mild headaches”. For the same compound, the inhibition at 30 µM [2] was 75%, the “% inhibition of the binding of radioactively labelled ligand” value [3] was 75.1% and the “% Activation Average at maximal concentration” value [4] was 0.21%. The “weight loss compared to vehicle” value ([5]; 40 mg/Kg body weight per day, 28 days) was “meaningful weight loss”, the “body weight gain during recovery phase compared to controls” value ([5]; 80 mg/kg/day, 2 weeks recovery phase) was “comparable or greater body weight gain” and the “group mean food consumption compared with control group” value ([5]; both sexes, >40 mg/kg/day, dosing phase) was “significant reduced”. For the same compound, the “food intake at the end of recovery phase” value ([5]; end of recovery phase) was “reversed”, the “overall body weight gain Day −1 to Day 28 compared to that of the controls” value ([5]; females) was 79% and the “group mean body weight compared to the controls” value ([5]; females) was −4.70%. The “overall body weight gain Day −1 to Day 28 compared to that of the controls” value ([5]; males) was 71%, the “group mean body weight compared to the controls” value ([5]; males) was −7.35% and the “test article-related adverse effects in clinical signs, food consumption, clinical pathology, or pathology” value [5, 13] was “no test article-related adverse effects”. For the same compound, the tolerability [5, 13] was “well tolerated”, the inhibition at 30 µM [6] was 50.6% and the “Hill Coefficient” value [7] was 11.62. For the same compound, the “% Activation Average at maximal concentration” value ([7]; CHO-K1-mt aequorin) was 26.48%, the EC50 ([7]; CHO-K1-mt aequorin) was 355 nM and the “% inhibition of the binding of radioactively labelled ligand” value [8] was 67.1%. For the same compound, the “decrease in body weight compared to vehicle” value ([9]; 28 days) was 25%, the “food consumption compared to vehicle” value ([9]; 28 days) was “dramatic decrease” and the inhibition at 30 µM [10] was 79%. The “gastric emptying compared to vehicle” value ([11]; p<0.05) was “significantly decreased” and the “gastric content retention higher compared to vehicle controls” value ([11]; up to 25 minutes after administration) was “up to 105%”.

In the case of `CCCNc1nc(NC)nc2c(NCC(C)(C)O)nc(NC)nc12.Cl.Cl` [Gal-475*2HCl, 1-(2,6-Bis-methylamino-8-propylamino-pyrimido[5,4-d]pyrimidin-4-ylamino)-2-methyl-propan-2-ol bis hydrochloride], the “decrease in food consumption” value ([9]; females) is reported as no more than 98%, the “decrease in body weight gain” value ([9]; females) is reported as no more than 29.9% and the “decrease in food consumption” value ([9]; males) is reported as “up to 81%”. For the same compound, the “decrease in body weight gain” value ([9]; males) was “up to 22.7%” and the “body weight gain and food consumption during the recovery phase” value ([9]; recovery phase) was “comparable with the control”.
